The source of these data is patent US20050100507A1, “Chemotactic peptide antagonists for imaging sites of inflammation” (Bracco Imaging S.p.A., priority 1998, published 2005).

Square brackets hold non-standard residues; d marks the D form. Ends that are not written are not given here. Peptide text beside a SMILES is read from it. * marks the point of attachment. 3‑but‑1‑enoxycarbonyl = 3-but-1-enoxycarbonyl (N-terminal capping group); 2‑quinoxazoyl = 2-quinoxazoyl (N-terminal capping group); N‑phenyl‑N‑methylcarbamoyl = CN(C(=O)*)c1ccccc1; trans‑cinnamoyl = O=C(/C=C/c1ccccc1)*; Cyclopropanecarbonyl = O=C(C1CC1)*; iso‑Boc = not defined here; Nle = CCCC[C@H](N)C(=O)O; 2Furoyl = O=C(c1ccco1)*; Boc = CC(C)(C)OC(=O)*; For = O=C*

In experiment [1] the test system is elicited rat PMNs. The format is cell-based. Conditions: for % Control (1 uM) / % Control (10 uM): MPO release, PMNs without fMLF, ± S.E.M.; for % Control (1 uM): test peptide 1 uM; for % Control (10 uM): test peptide 10 uM; for EC50: 4 h. Here is the method:
(§1) Animals were sacrificed via administration of CO2 4 hours following peritoneal injection of 10 mL of 0.5% (w/v) oyster glycogen warmed to room temperature. Leukocyte harvesting via peritoneal lavage was performed using 20 mL of Hanks' buffered salt solution (HBSS−) containing 10 mM ethylene-diaminetetra-acetic acid (EDTA) disodium salt followed by a second lavage with 10 mL of HBSS− containing 10 mM EDTA. Exactly the same technique was performed on all rats with washes of the peritoneum prior to aspiration of samples approximating 1 minute. The volume of fluid recovered from each rat was approximately 20-25 mL and bloody lavages visibly containing significant red blood cell (RBC) populations were discarded.
(§2) Neutrophils isolated by peritoneal lavage were washed twice with 1 mL of HBSS− (without calcium chloride, magnesium chloride and magnesium sulfate) and centrifuged for ten minutes at 2000 rpms following each wash. PMNs utilized in functional assays were centrifuged at 25° C. while those used in binding assays were centrifuged at 4° C. to prevent internalization. A cold H2O RBC lysis was then performed with the addition of 9 mL of sterile ice-cold H2O and 1 mL of phosphate buffered saline (PBS) solution containing 0.1 M phosphate buffer, 0.027 M KCl and 1.37 M NaCl following resuspension of the sample in 1 mL of HBSS. Centrifugation was subsequently performed for ten minutes at 1600 rpms. White blood cell (WBC) differential stain containing saline, 2% acidic acid and phenol violet dye was used to identify the neutrophil population and trypan blue exclusion was used to determine viability of cells. As previously reported, 98% of leukocytes were neutrophils and approximately 95% of the cells were viable (Chen et al., 1996).
(§3) 0.5×10^6 PMNs per sample were incubated in 96-well Millipore Multiscreen 0.65 um filter plates. In a final volume of 150 uL, 50 uL of the respective fMLP analogues (10 uM to 1 pM) and/or fMLP (10 uM to 1.0 uM) were incubated with isolated PMNs pre-treated with cytochalasin B (5 ug/mL) for 10 minutes. Following a 30 minute incubation period at room temperature, the supernatant was collected into a 96-well polypropylene plate with the Millipore vacuum apparatus. A stock solution of o-phenylenediamine (OPD) was made to contain 2.5 mg of OPD, 5 ul of H2O2 and 10 mL HBSS+ and supernatant samples were subsequently incubated with 50 uL of OPD solution. The reaction was stopped after 2 minutes by the addition of 2.5M H2SO4. Photometric analysis was performed with the Thermomax Microplate Reader with optical density (O.D.490) values being read at a wavelength of 490 nm. Absorbance was measured against a blank containing 150 μl of HBSS+ which was subtracted from wells containing cells and the various treatments. MPO release was expressed as a percentage of the total release of myeloperoxidase in control wells containing cells ±fMLF.
(§4) The curve-fitting program Prism was used to calculate KD, IC50 and EC50 values by fitting data to the one-site binding equations A, B and C respectively. • A. Equation: One site binding (hyperbola) Y=Bmax*X/(KD+X) • B. Equation: One site competition Y=Bottom+(Top−Bottom)/(1+10^(X−LogIC50)); with x=log (concentration) and y=binding • C. […] Additionally, Graph fit software was used to perform Scatchard analysis of saturation binding data and to confirm KD and Bmax values generated by Prism software.

The test system of experiment [2] is elicited rat PMNs. The experiment can be described thus: Myeloperoxidase release in elicited rat PMNs co-stimulated with 0.1 uM fMLF. The format is cell-based. The conditions noted are these: for antagonist function on MPO release in fMLF stimulated rat PMNs: 0.1 uM fMLF, inhibition at 10 uM, result in words; for % Control MPO release (1 uM capping group + 0.1 uM fMLF): 1 uM test peptide + 0.1 uM fMLF; for % Control MPO release (1 uM capping group + 0.1 uM fMLF) / % Control MPO Release (10 uM capping group + 0.1 uM fMLF): ± S.E.M.; for % Control MPO Release (10 uM capping group + 0.1 uM fMLF): 10 uM test peptide + 0.1 uM fMLF. The protocol:
as §1, §2
as §3, with “In a final volume of 150 uL, 50 uL of the respective fMLP analogues (10 uM to 1 pM) and/or fMLP (10 uM to 1.0 uM) were incubated with isolated PMNs pre-treated with cytochalasin B (5 ug/mL) for 10 minutes.” left out

Another experiment has as its target T1, Rat FPR (Rattus norvegicus, UniProt D4A7Q2).
T1 construct: endogenous in cells; host or cells: glycogen-elicited peritoneal neutrophils (PMNs) of Sprague-Dawley rats
T1 sequence (D4A7Q2 1-355): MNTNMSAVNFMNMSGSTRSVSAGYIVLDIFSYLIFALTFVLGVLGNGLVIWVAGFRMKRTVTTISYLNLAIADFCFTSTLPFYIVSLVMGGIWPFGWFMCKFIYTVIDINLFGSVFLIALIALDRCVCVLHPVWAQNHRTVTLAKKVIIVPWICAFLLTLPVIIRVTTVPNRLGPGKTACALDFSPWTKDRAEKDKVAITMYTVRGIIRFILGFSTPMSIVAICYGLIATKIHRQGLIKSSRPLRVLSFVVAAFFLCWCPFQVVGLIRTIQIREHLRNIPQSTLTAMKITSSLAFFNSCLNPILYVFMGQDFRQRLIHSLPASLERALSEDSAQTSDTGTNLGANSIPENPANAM
Briefly: Competition binding with 6 nM 3H-fMLF to elicited rat PMNs. Conditions: 6 nM 3H-fMLF, result in words; for competition binding of N-terminal modified NleLFK peptides (FIG. 8): peptides at 1 uM and 10 uM. The protocol:
as §1, §2
Competition binding assays for N-terminal capping groups and Re-libraries were conducted with 6 nM ^3H-fMLP in addition to the unlabelled competing analogue added at 1.0 uM and 10 uM to each well. […] Total binding in the competition assays was assessed in the presence of 1.0×10^6 PMNs per sample while non-specific binding was determined in the absence of cells. Each condition was performed in quadruplicate. Total activity added to each sample was determined from cpms obtained from a sample containing 6 nM ^3H-fMLF. Data was expressed as specific binding in fmols and converted to percent of total ^3H-fMLF binding (% control).
After a 1 hour incubation period at 4° C., the samples were harvested with the Tomtec Mach III Cell Harvester by vacuum aspiration onto 1.5 um pore size Skatron glass-fibre filter mats pre-treated with 0.1% polyethylenimine (w/v) for approximately 24 hours. Sample wells received three consecutive 12 second washes with 0.9% saline solution and 5 mL of liquid scintillation fluid was added to collected filters. Filters were counted for 2 minutes in the Beckman β-counter following exposure to scintillation fluid for 15 hours. Data was expressed in terms of specific binding in fmols converted to percent of total ^3H-fMLF binding (% control).
as §4

For “Capping Group 7: 3-but-1-enoxycarbonyl N-terminal capping group attached to peptide NleLFK ({3‑but‑1‑enoxycarbonyl}-[Nle]LFK)”, in the experiment with elicited rat PMNs [1], the “% Control (1 uM)” value is on record as 133.8 ± 13.3 % control and the “% Control (10 uM)” value came out at 229.3 ± 13.3 % control.
On to “N-t-BocMLFK: known antagonist used as standard in MPO release assay (Boc-MLFK) [reference compound]”, for which, in the experiment on elicited rat PMNs [1], the “% Control (1 uM)” value amounted to 89.8 ± 32.5 % control and the “% Control (10 uM)” value is on record as 86.7 ± 31.1 % control.
“Capping Group 14: 2-quinoxazoyl N-terminal capping group attached to peptide NleLFK ({2‑quinoxazoyl}-[Nle]LFK)”: in the experiment with elicited rat PMNs [1], the “% Control (1 uM)” value stood at 117.2 ± 18.6 % control and the “% Control (10 uM)” value is reported as 129.8 ± 6.0 % control. Also, in the experiment on elicited rat PMNs [2], the “antagonist function on MPO release in fMLF stimulated rat PMNs” value is “significant inhibition”, the “% Control MPO release (1 uM capping group + 0.1 uM fMLF)” value came to 323.2 ± 16.8 % control and the “% Control MPO Release (10 uM capping group + 0.1 uM fMLF)” value is 239.8 ± 9.0 % control.
For “iso-BocMLFK: known antagonist, fMLP peptide analogue synthesized in-house ({iso‑Boc}-MLFK; reading uncertain) [reference compound]” the same measures were 99.6 ± 16.5 % control, 94.7 ± 20.2 % control, “significantly inhibiting fMLF-stimulated MPO release”, 215.4 ± 66.3 % control and 179.9 ± 50.6 % control.
Consider “Capping Group 3: Furoyl N-terminal capping group attached to peptide NleLFK (2Furoyl-[Nle]LFK)”, for which, in the experiment on elicited rat PMNs [1], the “% Control (1 uM)” value came to 93.0 ± 9.0 % control and the “% Control (10 uM)” value is listed as 102.5 ± 9.0 % control.
For “Capping Group 15: trans-cinnamoyl N-terminal capping group attached to peptide NleLFK ({trans‑cinnamoyl}-[Nle]LFK)” the same measures were 133.1 ± 10.3 % control and 195.8 ± 14.3 % control.
On to “Capping Group 10: N-phenyl-N-methylcarbamoyl N-terminal capping group attached to peptide NleLFK ({N‑phenyl‑N‑methylcarbamoyl}-[Nle]LFK)”, for which the “competition binding of N-terminal modified NleLFK peptides (FIG. 8)” value (“competition binding” below) in the experiment with Rat FPR is recorded as “did not significantly decrease the amount of ^3H-fMLF binding”. In the experiment with elicited rat PMNs [1], the “% Control (1 uM)” value is on record as 94.7 ± 20.4 % control and the “% Control (10 uM)” value is 68.0 ± 17.4 % control. Further, in the experiment with elicited rat PMNs [2], the “antagonist function on MPO release in fMLF stimulated rat PMNs” value is reported as “exhibited antagonist function in fMLF stimulated cells”, the “% Control MPO release (1 uM capping group + 0.1 uM fMLF)” value turned out to be 171.2 ± 6.3 % control and the “% Control MPO Release (10 uM capping group + 0.1 uM fMLF)” value is recorded as 121.3 ± 23.9 % control.
Regarding “cycloproylcarbonyl-NleLFK (Cyclopropanecarbonyl-[Nle]LFK) [Capping Group 17]”, in the experiment with Rat FPR (peptide 10 uM), the “inhibition of 3H-fMLF binding at 10 uM compared with iso-BocMLFK (FIG. 8)” value is “inhibited ^3H-fMLF binding to a degree comparable with known antagonist iso-BocMLFK”. In the experiment with Rat FPR (listed as 17), the “competition binding” value is recorded as “do not nullify binding affinity”. The “competition binding” value with Rat FPR (listed as cycloproylcarbonyl-NleLFK) was “inhibit ^3H-fMLF binding”. Moreover, in the experiment with elicited rat PMNs [1], the “% Control (1 uM)” value is on record as 108.0 ± 14.5 % control and the “% Control (10 uM)” value is given as 91.8 ± 16.3 % control.
In general, EC50 refers to the concentration needed to bring the measured effect to its halfway point. Low readings indicate a more potent agent, high ones a less potent agent. In the case of `CSCC[C@H](NC=O)C(=O)N[C@@H](CC(C)C)C(=O)N[C@@H](Cc1ccccc1)C(=O)N[C@@H](CCCCN)C(=O)O` [fMLFK, N-formyl-methionyl-leucyl-phenylalanyl-lysine, reference compound] (For-MLFK-OH), a half-maximal response with elicited rat PMNs [1] (EC50) required 0.14 µM.
For “Capping Group 12: 2-acetamido-5-thiazolesulfonyl N-terminal capping group attached to peptide NleLFK ({2‑acetamido‑5‑thiazolesulfonyl}-[Nle]LFK)”, in the experiment with elicited rat PMNs [1], the “% Control (1 uM)” value was found to be 117.5 ± 7.8 % control and the “% Control (10 uM)” value worked out at 175.5 ± 12.0 % control.
“Capping Group 2: 2-methoxyacetyl N-terminal capping group attached to peptide NleLFK ({2‑methoxyacetyl}-[Nle]LFK)”: in the experiment on elicited rat PMNs [1], the “% Control (1 uM)” value amounted to 95.0 ± 15.7 % control and the “% Control (10 uM)” value was 97.1 ± 37.1 % control.
In the case of “Capping Group 4: Phenylthioacetyl N-terminal capping group attached to peptide NleLFK (phenylthioacetyl-[Nle]LFK)”, in the experiment on elicited rat PMNs [1], the “% Control (1 uM)” value came to 138.7 ± 28.6 % control and the “% Control (10 uM)” value was determined as 119.7 ± 20.3 % control.
Take `CSCC[C@H](NC=O)C(=O)N[C@@H](CC(C)C)C(=O)N[C@@H](Cc1ccccc1)C(=O)O` [fMLF, N-formyl-methionyl-leucyl-phenylalanine, reference compound]: the concentration for a half-maximal effect (EC50) in the experiment with elicited rat PMNs [1] was 0.11 µM.
